Experimental data as given in ChEMBL document CHEMBL1139192, “Novel bis(indolyl)maleimide pyridinophanes that are potent, selective inhibitors of glycogen synthase kinase-3” (Bioorg Med Chem Lett, 2007).
The source made the active and inactive calls. The calls are words filed in the database; no cut-off is given here.

Key:
[1] = target: Tyrosine-protein kinase CSK (Homo sapiens) (UniProt P41240); assay: Inhibition of human CSK at 1 uM relative to control; values are per cent of control
[2] = target: T1, Inhibitor of nuclear factor kappa-B kinase subunit beta (Homo sapiens) (UniProt O14920); assay: Residual activity of human IKK-beta at 1 uM relative to control
T1 sequence (whole entry): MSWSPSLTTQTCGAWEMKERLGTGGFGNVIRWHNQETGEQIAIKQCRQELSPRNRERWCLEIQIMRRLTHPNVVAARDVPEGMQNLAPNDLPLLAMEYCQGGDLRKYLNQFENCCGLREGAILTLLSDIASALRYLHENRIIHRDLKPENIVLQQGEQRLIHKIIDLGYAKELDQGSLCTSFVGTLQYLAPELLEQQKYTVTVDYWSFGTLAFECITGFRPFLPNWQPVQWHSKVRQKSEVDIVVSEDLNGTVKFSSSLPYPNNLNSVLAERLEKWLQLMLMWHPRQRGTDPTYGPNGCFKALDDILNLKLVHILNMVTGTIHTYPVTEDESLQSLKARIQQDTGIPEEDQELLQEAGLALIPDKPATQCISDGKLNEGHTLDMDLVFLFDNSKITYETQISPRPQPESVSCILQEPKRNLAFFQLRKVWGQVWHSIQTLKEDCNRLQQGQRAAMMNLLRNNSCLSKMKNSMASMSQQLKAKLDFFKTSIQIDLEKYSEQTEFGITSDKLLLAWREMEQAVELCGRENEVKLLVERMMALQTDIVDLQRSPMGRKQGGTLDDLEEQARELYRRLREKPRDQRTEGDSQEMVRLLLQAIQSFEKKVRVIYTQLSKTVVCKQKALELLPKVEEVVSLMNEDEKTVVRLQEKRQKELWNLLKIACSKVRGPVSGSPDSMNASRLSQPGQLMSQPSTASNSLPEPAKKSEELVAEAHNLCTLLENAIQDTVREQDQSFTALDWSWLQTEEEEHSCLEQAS

[3] = target: Glycogen synthase kinase-3 beta (Homo sapiens, UniProt P49841); assay: Residual activity of human GSK3-beta at 1 uM relative to control
Sequence of Glycogen synthase kinase-3 beta (P49841 whole entry, looked up): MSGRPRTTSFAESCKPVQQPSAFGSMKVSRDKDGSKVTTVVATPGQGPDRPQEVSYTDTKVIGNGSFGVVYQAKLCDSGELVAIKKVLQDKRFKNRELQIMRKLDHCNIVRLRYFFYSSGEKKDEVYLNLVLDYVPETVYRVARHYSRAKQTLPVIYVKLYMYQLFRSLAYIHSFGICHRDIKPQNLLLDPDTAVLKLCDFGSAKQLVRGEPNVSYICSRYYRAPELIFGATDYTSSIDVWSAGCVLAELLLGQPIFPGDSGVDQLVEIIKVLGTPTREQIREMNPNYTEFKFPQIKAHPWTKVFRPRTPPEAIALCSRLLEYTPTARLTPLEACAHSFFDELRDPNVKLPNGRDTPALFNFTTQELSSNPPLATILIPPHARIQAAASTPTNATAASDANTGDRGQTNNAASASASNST

[4] = target: Tyrosine-protein kinase ZAP-70 (Homo sapiens) (UniProt P43403); assay: Residual activity of human ZAP70 kinase at 1 uM relative to control
Sequence of Tyrosine-protein kinase ZAP-70 (Homo sapiens) (P43403 whole entry, looked up): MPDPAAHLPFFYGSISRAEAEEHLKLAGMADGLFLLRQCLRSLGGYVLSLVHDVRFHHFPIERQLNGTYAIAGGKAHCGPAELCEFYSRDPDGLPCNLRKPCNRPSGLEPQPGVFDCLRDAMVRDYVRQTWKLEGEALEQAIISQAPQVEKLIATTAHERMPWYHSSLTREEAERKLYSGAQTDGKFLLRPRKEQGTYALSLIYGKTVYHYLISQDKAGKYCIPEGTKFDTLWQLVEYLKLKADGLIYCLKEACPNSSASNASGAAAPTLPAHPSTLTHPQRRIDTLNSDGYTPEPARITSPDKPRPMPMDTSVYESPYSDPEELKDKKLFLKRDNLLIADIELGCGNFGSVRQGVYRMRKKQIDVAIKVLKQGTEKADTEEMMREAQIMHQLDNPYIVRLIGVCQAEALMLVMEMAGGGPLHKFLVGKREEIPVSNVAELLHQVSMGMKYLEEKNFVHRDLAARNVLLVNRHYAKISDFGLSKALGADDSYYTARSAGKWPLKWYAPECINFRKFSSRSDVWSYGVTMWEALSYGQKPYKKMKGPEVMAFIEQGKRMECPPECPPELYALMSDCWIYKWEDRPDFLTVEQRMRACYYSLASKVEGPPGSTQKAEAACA

[5] = target: ALK tyrosine kinase receptor (Homo sapiens) (UniProt Q9UM73); assay: Inhibition of ALK at 1 uM relative to control; values are per cent of control
Sequence of ALK tyrosine kinase receptor (Homo sapiens) (Q9UM73 19-1620 limits assumed): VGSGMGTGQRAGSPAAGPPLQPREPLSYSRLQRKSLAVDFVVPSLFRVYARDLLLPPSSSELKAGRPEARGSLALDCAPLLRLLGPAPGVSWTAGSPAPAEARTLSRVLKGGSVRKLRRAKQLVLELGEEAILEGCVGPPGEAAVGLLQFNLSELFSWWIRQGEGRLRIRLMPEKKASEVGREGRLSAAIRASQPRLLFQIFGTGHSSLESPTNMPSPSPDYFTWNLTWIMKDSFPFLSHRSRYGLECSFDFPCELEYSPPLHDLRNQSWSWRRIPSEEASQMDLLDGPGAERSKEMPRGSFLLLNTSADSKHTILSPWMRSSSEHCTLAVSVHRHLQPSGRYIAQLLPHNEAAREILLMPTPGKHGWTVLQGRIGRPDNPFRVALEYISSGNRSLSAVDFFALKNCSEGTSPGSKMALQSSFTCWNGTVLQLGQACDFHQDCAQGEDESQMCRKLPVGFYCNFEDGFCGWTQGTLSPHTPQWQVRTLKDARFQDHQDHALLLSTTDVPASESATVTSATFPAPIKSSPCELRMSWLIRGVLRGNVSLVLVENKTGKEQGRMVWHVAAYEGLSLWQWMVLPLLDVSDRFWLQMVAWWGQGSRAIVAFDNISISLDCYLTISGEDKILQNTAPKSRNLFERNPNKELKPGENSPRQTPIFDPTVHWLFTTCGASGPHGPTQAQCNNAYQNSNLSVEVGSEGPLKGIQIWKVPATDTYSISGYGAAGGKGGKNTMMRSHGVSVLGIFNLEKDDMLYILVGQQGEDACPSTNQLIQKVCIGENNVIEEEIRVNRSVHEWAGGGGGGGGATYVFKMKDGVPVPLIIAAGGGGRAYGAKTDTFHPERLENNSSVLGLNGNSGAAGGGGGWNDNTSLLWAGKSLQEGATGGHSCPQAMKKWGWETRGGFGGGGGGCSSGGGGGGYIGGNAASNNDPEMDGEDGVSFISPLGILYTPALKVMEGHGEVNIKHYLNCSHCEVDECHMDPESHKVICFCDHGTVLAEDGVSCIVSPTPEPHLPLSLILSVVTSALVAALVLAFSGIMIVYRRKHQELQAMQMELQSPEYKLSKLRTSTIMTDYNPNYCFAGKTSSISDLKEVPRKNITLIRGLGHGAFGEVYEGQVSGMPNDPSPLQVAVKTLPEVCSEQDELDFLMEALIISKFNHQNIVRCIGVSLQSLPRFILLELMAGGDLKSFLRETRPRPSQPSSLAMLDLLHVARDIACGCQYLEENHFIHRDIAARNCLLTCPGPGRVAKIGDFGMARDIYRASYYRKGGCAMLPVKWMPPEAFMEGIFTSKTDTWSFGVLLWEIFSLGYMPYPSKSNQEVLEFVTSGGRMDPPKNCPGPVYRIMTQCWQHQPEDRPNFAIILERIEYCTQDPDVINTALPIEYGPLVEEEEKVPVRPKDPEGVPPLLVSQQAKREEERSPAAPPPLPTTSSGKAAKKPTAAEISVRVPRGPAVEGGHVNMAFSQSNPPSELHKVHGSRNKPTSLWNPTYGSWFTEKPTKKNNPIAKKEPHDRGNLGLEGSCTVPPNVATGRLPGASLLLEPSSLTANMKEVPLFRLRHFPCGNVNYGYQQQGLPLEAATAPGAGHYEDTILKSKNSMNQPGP

[6] = target: Casein kinase II (Homo sapiens) (UniProt P67870+P68400+P19784); assay: Inhibition of human CK2 at 1 uM relative to control; values are per cent of control
[7] = target: RAC-beta serine/threonine-protein kinase (Homo sapiens) (UniProt P31751); assay: Residual activity of human PKBbeta at 1 uM relative to control
Sequence of RAC-beta serine/threonine-protein kinase (Homo sapiens) (P31751 whole entry): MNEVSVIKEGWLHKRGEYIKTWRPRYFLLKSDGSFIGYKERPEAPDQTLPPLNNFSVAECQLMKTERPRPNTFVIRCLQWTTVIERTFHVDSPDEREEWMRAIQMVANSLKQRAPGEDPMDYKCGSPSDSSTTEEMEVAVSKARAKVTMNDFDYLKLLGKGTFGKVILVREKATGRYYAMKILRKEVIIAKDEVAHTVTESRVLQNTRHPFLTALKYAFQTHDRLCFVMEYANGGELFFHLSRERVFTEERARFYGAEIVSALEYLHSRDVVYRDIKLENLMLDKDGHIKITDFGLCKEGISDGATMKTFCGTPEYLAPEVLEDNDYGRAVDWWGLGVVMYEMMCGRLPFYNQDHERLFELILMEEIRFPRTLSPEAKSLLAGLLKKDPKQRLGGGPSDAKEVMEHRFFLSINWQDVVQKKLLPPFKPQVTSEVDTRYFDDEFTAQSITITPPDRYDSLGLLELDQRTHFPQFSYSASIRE

[8] = species on record: Homo sapiens; assay: Residual activity of human CDK3/Cyclin E at 1 uM relative to control
[9] = target: RAF proto-oncogene serine/threonine-protein kinase (Homo sapiens) (UniProt P04049); assay: Residual activity of humna c-RAF at 1 uM relative to control
Sequence of RAF proto-oncogene serine/threonine-protein kinase (Homo sapiens) (P04049 whole entry): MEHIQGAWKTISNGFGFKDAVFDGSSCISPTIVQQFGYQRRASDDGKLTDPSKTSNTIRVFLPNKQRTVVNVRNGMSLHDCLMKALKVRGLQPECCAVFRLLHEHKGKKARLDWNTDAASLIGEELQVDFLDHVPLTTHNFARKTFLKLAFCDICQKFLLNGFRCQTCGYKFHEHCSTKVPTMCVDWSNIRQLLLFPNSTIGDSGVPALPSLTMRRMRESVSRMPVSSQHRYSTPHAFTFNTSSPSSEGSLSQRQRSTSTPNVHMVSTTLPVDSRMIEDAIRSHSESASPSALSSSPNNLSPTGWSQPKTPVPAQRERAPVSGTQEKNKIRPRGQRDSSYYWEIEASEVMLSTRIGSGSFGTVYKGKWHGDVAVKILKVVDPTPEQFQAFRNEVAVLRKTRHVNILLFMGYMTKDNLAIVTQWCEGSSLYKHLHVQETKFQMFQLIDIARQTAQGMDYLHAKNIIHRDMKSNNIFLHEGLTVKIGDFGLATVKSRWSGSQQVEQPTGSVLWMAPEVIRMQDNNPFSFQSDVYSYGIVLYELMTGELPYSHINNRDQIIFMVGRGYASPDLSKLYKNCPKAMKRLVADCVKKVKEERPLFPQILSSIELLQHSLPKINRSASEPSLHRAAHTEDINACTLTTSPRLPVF

[10] = species on record: Homo sapiens; assay: Inhibition of human PKA at 1 uM relative to control; values are per cent of control
[11] = species on record: Homo sapiens; assay: Selectivity for human recombinant GSK3-beta over human recombinant PKCbeta2
[12] = target: T2, BDNF/NT-3 growth factors receptor (Homo sapiens, UniProt Q16620); assay: Inhibition of human TrkB at 1 uM relative to control
[13] = target: T2, BDNF/NT-3 growth factors receptor; assay: Inhibition of human TrkB
[14] = target: Ribosomal protein S6 kinase alpha-1 (Homo sapiens, UniProt Q15418); assay: Inhibition of human Rsk1
Sequence of Ribosomal protein S6 kinase alpha-1 (Q15418 whole entry): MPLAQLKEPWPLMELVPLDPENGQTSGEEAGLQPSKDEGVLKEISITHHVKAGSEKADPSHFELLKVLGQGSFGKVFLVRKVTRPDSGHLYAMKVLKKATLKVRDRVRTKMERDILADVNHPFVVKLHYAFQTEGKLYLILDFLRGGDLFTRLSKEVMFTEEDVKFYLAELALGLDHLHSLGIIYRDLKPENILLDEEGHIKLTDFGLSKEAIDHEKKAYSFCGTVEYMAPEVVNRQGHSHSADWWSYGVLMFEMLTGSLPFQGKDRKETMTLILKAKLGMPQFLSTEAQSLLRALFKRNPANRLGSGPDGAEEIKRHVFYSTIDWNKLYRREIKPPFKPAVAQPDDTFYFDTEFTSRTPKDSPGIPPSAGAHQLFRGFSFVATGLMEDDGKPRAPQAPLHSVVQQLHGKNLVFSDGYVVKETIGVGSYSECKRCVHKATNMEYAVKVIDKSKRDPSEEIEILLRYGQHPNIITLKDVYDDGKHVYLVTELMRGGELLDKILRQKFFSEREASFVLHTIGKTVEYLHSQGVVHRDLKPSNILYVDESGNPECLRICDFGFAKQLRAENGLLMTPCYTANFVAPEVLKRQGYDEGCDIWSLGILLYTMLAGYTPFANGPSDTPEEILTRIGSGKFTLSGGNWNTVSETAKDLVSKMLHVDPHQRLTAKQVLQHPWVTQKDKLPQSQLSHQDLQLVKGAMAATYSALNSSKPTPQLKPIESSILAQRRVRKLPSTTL

[15] = target: Cytoplasmic tyrosine-protein kinase BMX (Homo sapiens) (UniProt P51813); assay: Inhibition of human BMX kinase at 1 uM relative to control; values are per cent of control
[16] = target: Ribosomal protein S6 kinase alpha-5 (Homo sapiens, UniProt O75582); assay: Inhibition of human MSK1
[17] = target: Protein kinase C theta type (Homo sapiens, UniProt Q04759); assay: Inhibition of human PKCtheta

Sequence of Tyrosine-protein kinase CSK (Homo sapiens) (P41240 2-450 limits assumed): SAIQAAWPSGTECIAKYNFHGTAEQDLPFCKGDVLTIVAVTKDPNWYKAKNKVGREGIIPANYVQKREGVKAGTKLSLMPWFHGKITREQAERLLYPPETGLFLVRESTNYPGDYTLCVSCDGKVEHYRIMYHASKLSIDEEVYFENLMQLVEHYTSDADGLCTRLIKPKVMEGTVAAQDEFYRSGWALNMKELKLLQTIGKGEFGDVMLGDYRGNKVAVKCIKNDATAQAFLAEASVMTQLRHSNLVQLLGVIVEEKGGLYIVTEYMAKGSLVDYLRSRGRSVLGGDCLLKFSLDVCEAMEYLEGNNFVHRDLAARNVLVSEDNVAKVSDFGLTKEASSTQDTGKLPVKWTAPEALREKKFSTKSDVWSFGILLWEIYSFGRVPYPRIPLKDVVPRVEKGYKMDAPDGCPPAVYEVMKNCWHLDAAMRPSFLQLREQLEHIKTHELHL

| Structure (SMILES) | residual activity [1] | residual activity [2] | residual activity [3] | residual activity [4] | residual activity [5] | residual activity [6] | residual activity [7] | residual activity [8] | residual activity [9] | residual activity [10] | Ratio IC50 [11] | Activity [12] | IC50 [13] | IC50 [14] | residual activity [15] | IC50 [16] | IC50 [17] |
| --- | --- | --- | --- | --- | --- | --- | --- | --- | --- | --- | --- | --- | --- | --- | --- | --- | --- |
| CN(C)c1cc2cc(n1)CCCn1cc(c3ccccc31)C1=C(C(=O)NC1=O)c1cn(c3ccccc13)CCC2 | 133% | 124% | 1% | 103% | 55% | 111% | 118% | 89% | 87% | 95% | – | – | – | – | – | – | – |
| O=C1NC(=O)C2=C1c1cn(c3ccccc13)CCCc1cc(nc(N3CCCC3)c1)CCCn1cc2c2ccccc21 | 125% | 125% | 3% | 115% | 58% | 108% | 104% | 86% | 92% | 104% | – | – | – | – | – | – | – |
| O=C1NC(=O)C2=C1c1cn(c3ccccc13)CCCc1ccc(c(N3CCCC3)n1)CCCn1cc2c2ccccc21 | 129% | 130% | 7% | 121% | 74% | 113% | 102% | 106% | 85% | 102% | – | – | – | – | – | – | – |
| CN(C)c1nc2ccc1CCCn1cc(c3ccccc31)C1=C(C(=O)NC1=O)c1cn(c3ccccc13)CC2 | 95% | 128% | 1% | 113% | 103% | 107% | 86% | 59% | 103% | 90% | 460 | inactive | > 3000 nM | 1900 nM | 101% | 510 nM | 98 nM |
